Each block holds one compound with its values, some of them ahead of it.
Experiments:
[1] = tested on: RARα and RXRα homodimers or heterodimers
[2] = tested on: None (vector without insert); test: 3ERE-URA3 reporter in yeast strain PL3, vector without insert (control "None"); assay type: cell-based; settings: no receptor, yeast PL3, in presence of ligand
[3] = target: T1, RXRα-ER(C) (Mus musculus, UniProt P28700, A202E/D171H/D178A/D181Q/G144N/G162A/I142V/INS139MESAKETRY/INS205MKGGIRKDRRGGRMLKHKRQRDDGEGRGEVGSM/K150Y/K170G/K180N/L172N/L183T/L201Y/M203V/N179T/N190K/Q188R/Q198R/R146Y/R169Q/R177P/R187N/R191S/S147A/T167S/T173D/T175M/V168I/Y155W/Y194A/Y197L); test: 3ERE-URA3 reporter transactivation in yeast strain PL3 (OMPdecase activity); assay type: cell-based
T1 construct: (a.a. 1 to 467), mouse RXRαdn; expressed in transfected cells; host or cells: Saccharomyces cerevisiae PL3 (multicopy YEp10/YEp90, PGK promoter)
T1 sequence (P28700 with tags, fused parts or gaps INS139MESAKETRY/I142V/G144N/R146Y/S147A/K150Y/Y155W/G162A/T167S/V168I/R169Q/K170G/D171H/L172N/T173D/T175M/R177P/D178A/N179T/K180N/D181Q/L183T/R187N/Q188R/N190K/R191S/Y194A/Y197L/Q198R/L201Y/A202E/M203V/INS205MKGGIRKDRRGGRMLKHKRQRDDGEGRGEVGSM): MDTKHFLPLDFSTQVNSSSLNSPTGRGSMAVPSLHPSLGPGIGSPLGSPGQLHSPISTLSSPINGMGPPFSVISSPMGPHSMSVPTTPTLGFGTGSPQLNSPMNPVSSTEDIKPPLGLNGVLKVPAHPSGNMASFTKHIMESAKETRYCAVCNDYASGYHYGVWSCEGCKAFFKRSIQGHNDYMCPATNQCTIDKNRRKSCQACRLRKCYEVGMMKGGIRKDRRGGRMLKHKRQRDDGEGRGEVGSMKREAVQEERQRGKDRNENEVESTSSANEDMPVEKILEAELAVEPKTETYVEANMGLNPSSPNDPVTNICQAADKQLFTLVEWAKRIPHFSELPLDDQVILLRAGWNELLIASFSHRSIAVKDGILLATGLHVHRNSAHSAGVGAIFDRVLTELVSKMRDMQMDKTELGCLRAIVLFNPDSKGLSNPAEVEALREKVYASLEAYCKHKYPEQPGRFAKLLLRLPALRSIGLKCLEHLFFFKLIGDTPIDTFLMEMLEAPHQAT
Procedure: (§1) Induction of the reporter was determined by measuring the specific activity of the URA3 gene product OMPdecase (see above).
Vector without insert was used as a control (“None”).

[4] = target: T2, RARα1-ER.CAS (Homo sapiens, UniProt P10276, INS60IETQSSSSEEIVPSPPSPPPLPRIYKPCAVCNDYASGYHYGVWSCEGCKAFFKRSIQGHNDYMCPATNQCTIDKNRRKSCQACRLRKCYEVGMSKES)
T2 sequence (P10276 with tags, fused parts or gaps isoform P10276-3): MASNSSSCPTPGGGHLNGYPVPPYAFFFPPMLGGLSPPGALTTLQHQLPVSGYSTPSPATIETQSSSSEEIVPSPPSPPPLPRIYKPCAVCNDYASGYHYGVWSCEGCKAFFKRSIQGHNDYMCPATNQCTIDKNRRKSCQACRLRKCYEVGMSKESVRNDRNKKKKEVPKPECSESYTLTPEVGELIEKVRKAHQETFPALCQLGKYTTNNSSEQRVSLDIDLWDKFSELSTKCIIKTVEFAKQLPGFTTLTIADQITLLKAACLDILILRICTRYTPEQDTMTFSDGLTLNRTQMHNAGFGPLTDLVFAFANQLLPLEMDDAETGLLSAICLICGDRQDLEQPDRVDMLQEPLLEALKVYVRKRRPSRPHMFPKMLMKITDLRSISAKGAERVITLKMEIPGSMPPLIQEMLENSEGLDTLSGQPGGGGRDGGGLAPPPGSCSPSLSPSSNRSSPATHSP
Procedure: The 5′ prime flank of each construct contains a mammalian Kozak's sequence sandwiched between the EcoR1 and the translation start codon (5′-[…]-3′). […] PCR and site-directed mutagenesis were used to create RARα(DEF)-ER.CAS, RARα1(AB)-ER(C), RXRα(DE)-ER.CAS and RXRα(AB)-ER(C) as shown in FIG. 10a. All sequences generated by PCR or site directed mutagenesis were verified by sequencing. […] For transactivation experiments, transformants were grown exponentially for approximately 5 generations in selective medium […] uracil in the presence or absence of ligand, in conditions of diffuse light.
as §1
Vector without insert was used as a control (“None”). Transactivation data are expressed as OMPdecase activities; the mean values shown in the table were determined from duplicate assays with three individual transformants for each clone. The numbers in parentheses indicate the fold induction over the activity observed for each receptor in the absence of ligand.

[5] = target: T3, hRAR-γ binding to β-RARE (Homo sapiens, UniProt P13631); test: Gel retardation assay of RAR binding to β-RARE (RBF complementation); settings: with HeLa cell NE
T3 construct: fused to the amino terminal amino acid of full length hRAR-γ; 14 amino acids from the parental vector pEt3a (bacterially expressed preparation only) (N); made in house; host or cells: E. coli BL21 (DE3) plysS; also rVV-infected HeLa cells, rBV-infected Sf9 cells, yeast (ubiquitin fusion) and rabbit reticulocyte lysate
T3 sequence (P13631 1-454): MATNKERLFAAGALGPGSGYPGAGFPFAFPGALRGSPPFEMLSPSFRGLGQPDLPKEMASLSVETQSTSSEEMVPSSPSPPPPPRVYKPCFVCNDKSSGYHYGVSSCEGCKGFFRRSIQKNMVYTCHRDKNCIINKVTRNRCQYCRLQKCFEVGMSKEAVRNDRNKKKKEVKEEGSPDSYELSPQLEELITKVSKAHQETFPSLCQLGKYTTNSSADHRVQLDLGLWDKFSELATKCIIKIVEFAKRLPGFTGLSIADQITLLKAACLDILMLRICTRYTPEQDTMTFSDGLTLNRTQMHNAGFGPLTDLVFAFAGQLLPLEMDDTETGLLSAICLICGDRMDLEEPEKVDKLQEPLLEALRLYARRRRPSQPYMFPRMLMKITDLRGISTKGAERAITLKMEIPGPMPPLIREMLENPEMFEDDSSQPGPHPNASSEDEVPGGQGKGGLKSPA
T3 sequence (P28702 1-533 partner): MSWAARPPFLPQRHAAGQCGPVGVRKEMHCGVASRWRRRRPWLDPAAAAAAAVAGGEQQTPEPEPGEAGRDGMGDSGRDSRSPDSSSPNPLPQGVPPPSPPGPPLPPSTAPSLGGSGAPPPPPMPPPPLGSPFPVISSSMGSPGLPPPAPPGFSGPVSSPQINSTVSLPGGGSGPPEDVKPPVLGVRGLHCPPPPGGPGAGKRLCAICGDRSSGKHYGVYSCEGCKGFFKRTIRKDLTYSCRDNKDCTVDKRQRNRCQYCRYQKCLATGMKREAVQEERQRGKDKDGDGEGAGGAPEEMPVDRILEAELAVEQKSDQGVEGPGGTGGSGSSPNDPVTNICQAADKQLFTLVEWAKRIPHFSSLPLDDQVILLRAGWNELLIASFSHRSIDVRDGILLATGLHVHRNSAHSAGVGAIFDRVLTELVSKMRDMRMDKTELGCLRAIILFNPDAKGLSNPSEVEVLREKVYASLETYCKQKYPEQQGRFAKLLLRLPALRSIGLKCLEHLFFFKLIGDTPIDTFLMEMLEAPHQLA
Procedure: For gel retardation experiments comparing RAR and RXR subtypes and deletion mutants, all proteins were produced by in vitro translation in the presence of [^35S]methionine.
Purification of rVV- and rBV-expressed hRAR-γ is being described elsewhere (Chen et al., manuscript in preparation). […] All steps were carried out at 4° C. and RBF activity was monitored through all purification steps by a complementation gel retardation assay using bacterially-expressed hRAR-γ as described above. […] The column was washed with equilibration buffer until the A280 of the eluent returned to baseline. […] The column was washed with equilibration buffer until the A280 of the eluent returned to baseline and then with 4 column volumes of buffer A containing 0.45 M ammonium sulfate and 50 mM KCl. The column was then eluted with an 18 ml linear gradient from 0.45 to 0 M ammonium sulfate in buffer A containing 50 mM KCl.

[6] = target: T4, RARα (Homo sapiens, UniProt P10276); test: URA3 reporter (DR5 etc.) transactivation in yeast strain YPH250 (OMPdecase activity); assay type: cell-based; settings: RARα alone, ligand 5×10^−7 M (500 nM)
T4 construct: The human RARα1 (aa 1-462); expressed in transfected cells; host or cells: Saccharomyces cerevisiae YPH250 (YEp10/YEp90)
T4 sequence (P10276 1-462): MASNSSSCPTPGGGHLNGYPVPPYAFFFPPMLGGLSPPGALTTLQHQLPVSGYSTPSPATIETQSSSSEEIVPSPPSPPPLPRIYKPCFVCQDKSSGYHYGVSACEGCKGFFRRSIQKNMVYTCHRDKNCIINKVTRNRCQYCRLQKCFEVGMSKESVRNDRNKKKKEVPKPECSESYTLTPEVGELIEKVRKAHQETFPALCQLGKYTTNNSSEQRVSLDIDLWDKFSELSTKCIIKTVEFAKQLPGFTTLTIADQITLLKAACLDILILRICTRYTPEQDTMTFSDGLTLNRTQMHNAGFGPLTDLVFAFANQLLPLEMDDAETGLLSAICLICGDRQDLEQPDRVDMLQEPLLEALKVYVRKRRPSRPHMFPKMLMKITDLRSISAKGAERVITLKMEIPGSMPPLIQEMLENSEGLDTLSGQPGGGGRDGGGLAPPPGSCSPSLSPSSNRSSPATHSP

[7] = FIG. 10b dose response, FIG. 10c ligand 10^−6 M

SMILES: CC1=C(/C=C/C(C)=C\C=C\C(C)=C\C(=O)O)C(C)(C)CCC1 [9C-RA, 9-cis retinoic acid]
effect on binding of homodimers or heterodimers to the probes [1]: did not further stimulate
OMP decase activity units [2]: 0.02 units

induction of activation by RXRα-ER(C) [3, 7]: induced
SMILES: CC1=C(/C=C/C(C)=C\C=C\C(C)=C\C(=O)O)C(C)(C)CC=C1 [9C-ddRA, 9-cis 3,4-didehydroretinoic acid]

SMILES: CC1=C(/C=C/C(C)=C/C=C/C(C)=C/C(=O)O)C(C)(C)CCC1 [T-RA, all-trans retinoic acid]
OMP decase activity units ([4]; 3ERE-URA3 reporter, yeast PL3, in presence of ligand): 14.70 units
stimulation of transactivation by RARα1-ER.CAS [4, 7]: comparably stimulated
effect on binding of homodimers or heterodimers to the probes [1]: did not further stimulate
effect on formation of the hRAR-γ/β-RARE complex [5]: In no case was the formation of the complex affected
OMP decase activity units [2]: 0.02 units
induction of OMPdecase activity, DR5-URA3 reporter [6]: approx. 5 fold

conversion to 9-cis stereoisomers in yeast ([3]; inferred from lack of RXRα-ER(C) activation): not significantly converted
SMILES: CC1=C(/C=C/C(C)=C/C=C/C(C)=C/C(=O)O)C(C)(C)CC=C1 [T-ddRA, all-trans 3,4-didehydroretinoic acid]
